Where a name gives a salt, the structure may show the parent alone.
Each compound was assayed against mMASP-2 (Mus musculus, UniProt Q91WP0) (assay: Enzymatic assay for mMASP-2). Conditions: not given.
Format: biochemical

Chain of mMASP-2 (Q91WP0 20-685): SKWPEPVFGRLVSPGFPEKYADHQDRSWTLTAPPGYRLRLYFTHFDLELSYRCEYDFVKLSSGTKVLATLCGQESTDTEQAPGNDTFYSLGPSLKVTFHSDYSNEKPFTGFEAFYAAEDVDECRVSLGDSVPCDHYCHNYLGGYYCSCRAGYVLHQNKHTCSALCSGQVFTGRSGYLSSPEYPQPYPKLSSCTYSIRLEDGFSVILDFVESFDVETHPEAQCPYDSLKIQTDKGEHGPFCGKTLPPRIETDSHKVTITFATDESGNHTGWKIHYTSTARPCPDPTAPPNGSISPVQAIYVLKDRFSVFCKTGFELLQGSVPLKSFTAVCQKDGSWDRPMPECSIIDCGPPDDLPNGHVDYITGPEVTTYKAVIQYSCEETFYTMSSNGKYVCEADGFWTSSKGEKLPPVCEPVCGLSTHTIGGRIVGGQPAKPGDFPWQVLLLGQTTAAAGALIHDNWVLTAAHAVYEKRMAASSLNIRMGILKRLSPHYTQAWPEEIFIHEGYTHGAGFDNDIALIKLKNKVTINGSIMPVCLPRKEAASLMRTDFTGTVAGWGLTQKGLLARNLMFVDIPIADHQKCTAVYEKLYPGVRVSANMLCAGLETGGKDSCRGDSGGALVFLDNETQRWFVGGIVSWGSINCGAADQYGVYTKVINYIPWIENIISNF

**Q.** How did the Ki turn out when `C[C@H](NC(=O)c1cc(-c2ccccc2)c[nH]1)C(=O)NCc1ccc(C(=N)N)cc1` [compound 1030] was run?
**A.** The Ki was less than 500 nM.

**Q.** Which Ki does the source give for `C[C@H](NC(=O)[C@H]1C[C@H](c2ccccc2)CN1)C(=O)NCc1ccc(C(=N)N)cc1` [compound 1036] here?
**A.** The Ki was less than 500 nM.

**Q.** For `C[C@H](NC(=O)[C@H](N)C1Cc2ccccc2C1)C(=O)NCc1ccc2nc(N)[nH]c2c1` [compound 1059], which Ki is on record?
**A.** Its Ki is less than 500 nM.

**Q.** How did the Ki turn out when `C[C@H](NC(=O)[C@H]1C[C@H](c2ccccc2)CN1)C(=O)NCc1ccc2c(N)nccc2c1` [compound 1090] was run?
**A.** Its Ki is less than 500 nM.

**Q.** `C[C@H](NC(=O)[C@H]1Cc2c([nH]c3ccccc23)CN1)C(=O)NCc1ccc(C(=N)N)cc1` [compound 1097] was tested. Which Ki did it give?
**A.** The Ki was less than 500 nM.

**Q.** `C[C@H](NC(=O)[C@H](N)CCc1cc(Cl)cc(Cl)c1)C(=O)NCc1ccc(C(=N)N)cc1` [compound 1118] was tested. Which Ki did it give?
**A.** The Ki was less than 500 nM.

**Q.** How did the Ki turn out when `Cc1nc(N)ccc1CNC(=O)[C@H](C)NC(=O)[C@H]1C[C@@H](c2cccc(CN)c2)CN1` [compound 1291, (2R,4S)—N—((S)-1-(((6-Amino-2-methylpyridin-3-yl)methyl)amino)-1-oxopropan-2-yl)-4-(3-(aminomethyl)phenyl)pyrrolidine-2-carboxamide Dihydrochloride] was run?
**A.** The Ki was 10000 to 25000 nM.

**Q.** `C[C@H](NC(=O)[C@H]1C[C@H](c2ccccc2)CN1)C(=O)NCc1ccc(/C(N)=N/O)cc1` [compound 1292] was tested. Which Ki did it give?
**A.** Its Ki is 10000 to 25000 nM.

**Q.** How did the Ki turn out when `C[C@H](NC(=O)[C@H](N)CCc1ccccc1)C(=O)NCc1cc(Cl)ccc1-n1cnnn1` [compound 1325, (R)-2-amino-N—((S)-1-((5-chloro-2-(1H-tetrazol-1-yl)benzyl)amino)-1-oxopropan-2-yl)-4-phenylbutanamide] was run?
**A.** Its Ki is 10000 to 25000 nM.

**Q.** How did the Ki turn out when `Cc1cccc(CNC(=O)[C@H](C)NC(=O)[C@H]2C[C@H](Cc3ccccc3)CN2)c1-n1ncnn1` [compound 1437, (2R,4S)-4-Benzyl-N—((S)-1-((3-methyl-2-(2H-tetrazol-2-yl)benzyl)amino)-1-oxopropan-2-yl)pyrrolidine-2-carboxamide] was run?
**A.** The Ki was 2500 to 10000 nM.

Each compound was assayed on Lectin Pathway (assay: Lectin Pathway Activation Assay in Human Serum (mannan-coated ELISA, C3c detection)). Conditions: 1% human serum.
Format: biochemical
Experimental: Microtiter ELISA plate was coated with mannan from Saccharomyces cerevisiae (Sigma-Aldrich, M7504) for overnight at 4° C. in coating buffer [15 mM Na2CO3, 35 mM NaHCO3]. Plate was blocked with 1% bovine serum albumin (BSA) (Sigma-Aldrich, A3294) in Tris-buffered Saline (TBS) [10 mM Tris-HCl, 140 mM NaCl] for 2 hours at room temperature. […] 100 μL of this mixture were then added to the plate and plate was incubated at 37° C. for up to an hour with gentle shaking, 200 rpm. After that, plate was washed thrice in wash buffer [TBS containing 5 mM CaCl2) and 0.05% Tween-20] and 100 μL of rabbit anti human C3c (Dako, A0062) diluted 1:5000 in wash buffer were added and incubated at 37° C. for 30 minutes.

**Q.** How did the IC50 turn out when `N=C(N)c1ccc(CNC(=O)[C@@H]2CCN2C(=O)[C@H](NCC(=O)O)C2CCCCC2)cc1` [compound 999, melagatran, reference compound] was run?
**A.** Its IC50 is 500 to 50000 nM.

**Q.** `C[C@H](NC(=O)[C@H](N)CCc1ccccc1)C(=O)NCc1ccc(C(=N)N)cc1` [compound 1024] was tested. Which IC50 did it give?
**A.** The IC50 was less than 500 nM.

**Q.** For `N=C(N)c1ccc(CNC(=O)[C@@H]2CCCN2C(=O)[C@H](N)C2CCCCC2)cc1` [compound 1027], which IC50 is on record?
**A.** The IC50 was 50 to 5000 nM.

**Q.** How did the IC50 turn out when `N=C(N)c1ccc(CNC(=O)[C@@H]2CCN2C(=O)[C@H]2Cc3ccccc3CN2)cc1` [compound 1034] was run?
**A.** Its IC50 is 500 to 50000 nM.

**Q.** With `C[C@H](NC(=O)[C@H]1C[C@H](c2ccccc2)CN1)C(=O)NCc1ccc(C(=N)N)cc1` [compound 1036] as the compound, how does the IC50 read?
**A.** Its IC50 is less than 500 nM.

**Q.** `N=C(N)c1ccc(CNC(=O)[C@@H]2CCN2C(=O)[C@H](N)CCc2ccccc2)cc1` [compound 1038] was tested. Which IC50 did it give?
**A.** The IC50 was less than 500 nM.

**Q.** With `Cc1ccc(CC[C@@H](N)C(=O)N[C@@H](C)C(=O)NCc2ccc(C(=N)N)cc2)cc1` [compound 1043] as the compound, how does the IC50 read?
**A.** The IC50 was 50 to 5000 nM.

**Q.** With `C[C@H](NC(=O)[C@H](N)CCc1ccc(F)cc1)C(=O)NCc1ccc(C(=N)N)cc1` [compound 1047] as the compound, how does the IC50 read?
**A.** The IC50 was 50 to 5000 nM.

**Q.** Which IC50 does the source give for `C[C@H](NC(=O)[C@H](N)CCc1cccc(F)c1)C(=O)NCc1ccc(C(=N)N)cc1` [compound 1048] here?
**A.** Its IC50 is 50 to 5000 nM.

**Q.** Which IC50 does the source give for `N=C(N)c1ccc(CNC(=O)[C@@H]2CCN2C(=O)[C@H](N)C2Cc3ccccc3C2)cc1` [compound 1058, (S)-1-((R)-2-Amino-2-(2,3-dihydro-1H-inden-2-yl)acetyl)-N-(4-carbamimidoylbenzyl)azetidine-2-carboxamide] here?
**A.** Its IC50 is 50 to 5000 nM.

**Q.** `C[C@H](NC(=O)[C@H](N)C1Cc2ccccc2C1)C(=O)NCc1ccc2nc(N)[nH]c2c1` [compound 1059] was tested. Which IC50 did it give?
**A.** Its IC50 is 50 to 5000 nM.

**Q.** How did the IC50 turn out when `C[C@H](NC(=O)[C@H](N)CCc1ccc(Cl)cc1)C(=O)NCc1ccc(C(=N)N)cc1` [compound 1080] was run?
**A.** The IC50 was 50 to 5000 nM.

**Q.** How did the IC50 turn out when `C[C@H](NC(=O)[C@H](N)Cc1cccc2ccccc12)C(=O)NCc1ccc(C(=N)N)cc1` [compound 1092] was run?
**A.** The IC50 was 50 to 5000 nM.

**Q.** With `CN(CC(=O)NCc1ccc(C(=N)N)cc1)C(=O)[C@H](NCC(=O)O)C1CCCCC1` [compound 1096] as the compound, how does the IC50 read?
**A.** The IC50 was 500 to 50000 nM.

**Q.** Which IC50 does the source give for `C[C@@H](C(=O)NCc1ccc(C(=N)N)cc1)N(C)C(=O)[C@H](NCC(=O)O)C1CCCCC1` [compound 1107] here?
**A.** Its IC50 is 500 to 50000 nM.

**Q.** With `C[C@H](NC(=O)[C@@H](CCc1ccccc1)NCC(=O)O)C(=O)NCc1ccc(C(=N)N)cc1` [compound 1110] as the compound, how does the IC50 read?
**A.** The IC50 was less than 500 nM.

**Q.** With `N=C(N)c1ccc(CNC(=O)[C@@H]2CCN2C(=O)[C@@H](CCc2ccccc2)NCC(=O)O)cc1` [compound 1124] as the compound, how does the IC50 read?
**A.** Its IC50 is less than 500 nM.

Same assay, conditions: 1% human serum, mannan-coated plate

**Q.** `CC(=O)Nc1ccc(CCN[C@H](CCc2ccccc2)C(=O)N[C@@H](C)C(=O)NCc2ccc(N)nc2C)cc1` [compound 1368, (R)-2-((4-Acetamidophenethyl)amino)-N—((S)-1-(((6-amino-2-methylpyridin-3-yl)methyl)amino)-1-oxopropan-2-yl)-4-phenylbutanamide] was tested. Which IC50 did it give?
**A.** The IC50 was 50 to 500 nM.

**Q.** With `Cc1nc(N)ccc1CNC(=O)[C@H](C)NC(=O)[C@H]1C[C@H](Cc2ccccc2-c2ccccc2)CN1` [compound 1373, (2R,4S)-4-([1,1′-Biphenyl]-2-ylmethyl)-N—((S)-1-(((6-amino-2-methylpyridin-3-yl)methyl)amino)-1-oxopropan-2-yl)pyrrolidine-2-carboxamide] as the compound, how does the IC50 read?
**A.** Its IC50 is 50 to 500 nM.

**Q.** `CCCCCN[C@H](CCc1ccccc1)C(=O)N[C@@H](C)C(=O)NCc1ccc(N)nc1C` [compound 1377, (R)—N—((S)-1-(((6-Amino-2-methylpyridin-3-yl)methyl)amino)-1-oxopropan-2-yl)-2-(pentylamino)-4-phenylbutanamide] was tested. Which IC50 did it give?
**A.** Its IC50 is 50 to 500 nM.

**Q.** `Cc1nc(N)ccc1CNC(=O)[C@H](C)NC(=O)[C@@H](CCc1ccccc1)NCc1ccc(C(=O)N2CCOCC2)cc1` [compound 1381, (R)—N—((S)-1-(((6-Amino-2-methylpyridin-3-yl)methyl)amino)-1-oxopropan-2-yl)-2-((4-(morpholine-4-carbonyl)benzyl)amino)-4-phenylbutanamide] was tested. Which IC50 did it give?
**A.** The IC50 was 500 to 5000 nM.

**Q.** How did the IC50 turn out when `C[C@H](NC(=O)[C@H]1C[C@H](c2ccccc2)CN1)C(=O)NCc1cc(Cl)cc(Cl)c1O` [compound 1395, (2R,4R)—N—((S)-1-((3,5-dichloro-2-hydroxybenzyl)amino)-1-oxopropan-2-yl)-4-phenylpyrrolidine-2-carboxamide] was run?
**A.** The IC50 was 5000 to 50000 nM.

**Q.** Which IC50 does the source give for `Cc1nc(N)ccc1CNC(=O)[C@H](C)NC(=O)[C@H]1C[C@@H](c2ccccc2)CCN1CC(=O)O` [compound 1398, 2-((2R,4S)-2-(((S)-1-(((6-Amino-2-methylpyridin-3-yl)methyl)amino)-1-oxopropan-2-yl)carbamoyl)-4-phenylpiperidin-1-yl)acetic acid] here?
**A.** The IC50 was 50 to 500 nM.

**Q.** For `Cc1nc(N)ccc1CNC(=O)[C@H](C)NC(=O)[C@H]1C[C@H](Cc2cc(-c3ccccc3)cs2)CN1` [compound 1399, (2R,4R)—N—((S)-1-(((6-Amino-2-methylpyridin-3-yl)methyl)amino)-1-oxopropan-2-yl)-4-((4-phenylthiophen-2-yl)methyl)pyrrolidine-2-carboxamide], which IC50 is on record?
**A.** Its IC50 is 50 to 500 nM.

**Q.** For `Cc1nc(N)ccc1CNC(=O)[C@H](C)NC(=O)[C@H]1C[C@H](Cc2cccc(-c3ccccc3)c2)CN1` [compound 1406, (2R,4S)-4-([1,1′-Biphenyl]-3-ylmethyl)-N—((S)-1-(((6-amino-2-methylpyridin-3-yl)methyl)amino)-1-oxopropan-2-yl)pyrrolidine-2-carboxamide], which IC50 is on record?
**A.** Its IC50 is 50 to 500 nM.

**Q.** For `COc1cc(C[C@@H]2CN[C@@H](C(=O)N[C@@H](C)C(=O)NCc3ccc(N)nc3C)C2)cc(OC)c1` [compound 1407, (2R,4S)—N—((S)-1-(((6-Amino-2-methylpyridin-3-yl)methyl)amino)-1-oxopropan-2-yl)-4-(3,5-dimethoxybenzyl)pyrrolidine-2-carboxamide], which IC50 is on record?
**A.** Its IC50 is 50 to 500 nM.

**Q.** For `C[C@H](NC(=O)[C@H]1C[C@H](Cc2ccccc2-c2ccc(Cl)s2)CN1)C(=O)NCc1cc(Cl)ccc1-n1cnnn1` [compound 1409, (2R,4S)—N—((S)-1-((5-Chloro-2-(1H-tetrazol-1-yl)benzyl)amino)-1-oxopropan-2-yl)-4-(2-(5-chlorothiophen-2-yl)benzyl)pyrrolidine-2-carboxamide], which IC50 is on record?
**A.** Its IC50 is 500 to 5000 nM.

**Q.** `Cc1nc(N)ccc1CNC(=O)[C@H](C)NC(=O)[C@H]1C[C@H](Cc2ccccc2-c2ccc(Cl)s2)CN1` [compound 1410, (2R,4S)—N—((S)-1-(((6-Amino-2-methylpyridin-3-yl)methyl)amino)-1-oxopropan-2-yl)-4-(2-(5-chlorothiophen-2-yl)benzyl)pyrrolidine-2-carboxamide] was tested. Which IC50 did it give?
**A.** Its IC50 is 500 to 5000 nM.

**Q.** How did the IC50 turn out when `Cc1nc(N)ccc1CNC(=O)[C@H](C)NC(=O)[C@H]1C[C@@H](c2ccccc2)CCN1CCC(=O)O` [compound 1411, 3-((2R,4S)-2-(((S)-1-(((6-Amino-2-methylpyridin-3-yl)methyl)amino)-1-oxopropan-2-yl)carbamoyl)-4-phenylpiperidin-1-yl)propanoic acid] was run?
**A.** The IC50 was 50 to 500 nM.

**Q.** With `Cc1nc(N)ccc1CNC(=O)[C@H](C)NC(=O)[C@H]1C[C@H](Cc2cccc(C(=O)N3CCC3)c2)CN1` [compound 1420, (2R,4S)—N—((S)-1-(((6-Amino-2-methylpyridin-3-yl)methyl)amino)-1-oxopropan-2-yl)-4-(3-(azetidine-1-carbonyl)benzyl)pyrrolidine-2-carboxamide] as the compound, how does the IC50 read?
**A.** The IC50 was 50 to 500 nM.

**Q.** For `C[C@H](NC(=O)[C@H]1C[C@@H](c2ccccc2)CCN1)C(=O)NCc1cc(Cl)ccc1-n1cnnn1` [compound 1426, (2R,4S)—N—((S)-1-((5-Chloro-2-(1H-tetrazol-1-yl)benzyl)amino)-1-oxopropan-2-yl)-4-phenylpiperidine-2-carboxamide], which IC50 is on record?
**A.** The IC50 was less than 50 nM.

**Q.** How did the IC50 turn out when `C[C@H](NC(=O)[C@H]1C[C@H](c2ccccc2)CN1)C(=O)NCc1cnc2c(c1)c(Cl)cn2C` [compound 1442, (2R,4R)—N—((S)-1-(((3-Chloro-1-methyl-1H-pyrrolo[2,3-b]pyridin-5-yl)methyl)amino)-1-oxopropan-2-yl)-4-phenylpyrrolidine-2-carboxamide] was run?
**A.** The IC50 was 500 to 5000 nM.

Source: patent US20260193179A9 (priority 2018, published 2026)
